Test results taken from patent US20250136552A1, “ANTAGONISTS OF CAV 2.3” (LARIO THERAPEUTICS LIMITED, priority 2021, published 2025).

Biological target: Cav2.3 (Homo sapiens, UniProt Q15878)
Test: Human Cav2.3 channel calcium-influx assay
Assay type: cell-based
Details: HEK-293 T-Rex/Kir2.1 cells with inducible Cav2.3e-β4-α2δ1; Fluo8 fluorescence; 8-point dose response from 30 μM; no pluronic acid; read-out: Cav2.3 (pIC50) (converted)
Procedure: HEK-293 T-Rex cells were transfected with pcDNA3.1-Kir2.1 to generate a stable cell line. After antibiotic selection, the obtained stable pools were analysed using FLIPR^TETRA(membrane potential assay), and a limiting dilution was performed and a HEK-293 T-Rex/Kir2.1 clone was selected. The clone was transfected with pcDNA3.1-Cav2.3e and pBud-Cav-β4-α2δ1 to generate a stable cell line where the Cav2.3e expression is inducible. After antibiotic selection, functional clone pool analysis and two successive limiting dilutions, the final clone underwent a qPCR analysis and a biophysical and pharmacological validation using patch-clamp.
A compound plate, containing 10 test compounds in eight-points dose response with n=4, was prepared. Test compounds dose response curves were prepared in automated fashion in 100% DMSO at CyBio Felix and starting from a stock solution in 100% DMSO; a defined volume was serially moved into destination wells pre-filled with the desired DMSO volume; stock solution concentration volumes were dependent on the final compounds concentrations to be tested and the final DMSO content used in the assay. For the assay test compounds dose response curves ranged from 30 μM and half log dilution with 0.3% final DMSO. In order to obtain the 8-points dose response curve all the concentrations were created by starting from a 10 mM DMSO stock solution and then moving 9.5 μL into a destination well pre-filled with 20.5 μL of 100% DMSO and repeating this step seven times. This initial step was done into 96 MTP plates, 10 compounds/plate. One 384 MTP was then reformatted to contain all the 10 compounds at 8 concentrations, quadruplicate data points. This so obtained 384 MTP compound plate served as source plate in a “mother to child” process with a CyBi®-Well dispenser in which 0.7 μL of compounds were moved into a destination plate pre-filled with 57.6 μL of Tyrode's buffer 0 mM K^+, thus obtaining 4× concentrated compounds solution. In columns 1-2 and 23-24 the control wells were added. Both “source” compound plate and “destination” compound plate were barcoded and a relationship between the two plates was thus generated.
The day before the experiment, cells were detached by gentle wash with DPBS, followed by 5 min incubation at 37° C. with Trypsin solution. Detached cells were diluted with OptiMEM+Doxycycline at 0.2 μg/mL, counted and plated in Poly-D-Lysine coated black/clear bottom (15.000 c/well in 20 μl/well) by the use of a MATRIX WellMate dispenser. Plates were placed into a humidified incubator at 37° C. with 5% CO2 until the experimental day. 24 h after seeding 10 μL/well of 1.5× Fluo8 NW dye solution prepared in Tyrode's buffer 0 mM K^+ were added on top of the seeding medium. Cell plates were incubated for 40-60 min at RT in the dark. We then Injected off-line 10 μL/well of test compounds and controls 4× concentrated in Tyrode's Buffer 0 mM K+ with the CyBi®-Well instrument. Cell plates were incubated 3 minutes at RT. Finally, we injected 20 μL/well of 3× concentrated activator solution (K20-Na130-Ca2 buffer: 20 mM KCl, 130 mM NaCl, 2 mM CaCl2, 10 mM HEPES, 10 mM Glucose, final concentrations, prepared starting from “K0-Na150-Ca2” and “K150-Na0-Ca2” buffers) at FDSS7000EX instrument and read emitted fluorescence for 130 seconds.
Data analysis was performed with Genedata Screener® software and reported compounds activity as % effect in relation to the normalization standards. The Kinetic Response Value (KRV) is calculated as follows:
KRV=Maximal fluorescence recorded from second 5 to second 130 minus baseline fluorescence, computed as average from second 1 to second 2, of the kinetic trace. The KRV was normalized versus Neutral Controls and Inhibitor Controls in order to obtain the Activity[%] for each well. […] Therefore, the compound activity values were scaled (based on the two references) to a common range (two-point normalization). […]

Chain of Cav2.3 (Q15878 1-2270 isoform Q15878-3): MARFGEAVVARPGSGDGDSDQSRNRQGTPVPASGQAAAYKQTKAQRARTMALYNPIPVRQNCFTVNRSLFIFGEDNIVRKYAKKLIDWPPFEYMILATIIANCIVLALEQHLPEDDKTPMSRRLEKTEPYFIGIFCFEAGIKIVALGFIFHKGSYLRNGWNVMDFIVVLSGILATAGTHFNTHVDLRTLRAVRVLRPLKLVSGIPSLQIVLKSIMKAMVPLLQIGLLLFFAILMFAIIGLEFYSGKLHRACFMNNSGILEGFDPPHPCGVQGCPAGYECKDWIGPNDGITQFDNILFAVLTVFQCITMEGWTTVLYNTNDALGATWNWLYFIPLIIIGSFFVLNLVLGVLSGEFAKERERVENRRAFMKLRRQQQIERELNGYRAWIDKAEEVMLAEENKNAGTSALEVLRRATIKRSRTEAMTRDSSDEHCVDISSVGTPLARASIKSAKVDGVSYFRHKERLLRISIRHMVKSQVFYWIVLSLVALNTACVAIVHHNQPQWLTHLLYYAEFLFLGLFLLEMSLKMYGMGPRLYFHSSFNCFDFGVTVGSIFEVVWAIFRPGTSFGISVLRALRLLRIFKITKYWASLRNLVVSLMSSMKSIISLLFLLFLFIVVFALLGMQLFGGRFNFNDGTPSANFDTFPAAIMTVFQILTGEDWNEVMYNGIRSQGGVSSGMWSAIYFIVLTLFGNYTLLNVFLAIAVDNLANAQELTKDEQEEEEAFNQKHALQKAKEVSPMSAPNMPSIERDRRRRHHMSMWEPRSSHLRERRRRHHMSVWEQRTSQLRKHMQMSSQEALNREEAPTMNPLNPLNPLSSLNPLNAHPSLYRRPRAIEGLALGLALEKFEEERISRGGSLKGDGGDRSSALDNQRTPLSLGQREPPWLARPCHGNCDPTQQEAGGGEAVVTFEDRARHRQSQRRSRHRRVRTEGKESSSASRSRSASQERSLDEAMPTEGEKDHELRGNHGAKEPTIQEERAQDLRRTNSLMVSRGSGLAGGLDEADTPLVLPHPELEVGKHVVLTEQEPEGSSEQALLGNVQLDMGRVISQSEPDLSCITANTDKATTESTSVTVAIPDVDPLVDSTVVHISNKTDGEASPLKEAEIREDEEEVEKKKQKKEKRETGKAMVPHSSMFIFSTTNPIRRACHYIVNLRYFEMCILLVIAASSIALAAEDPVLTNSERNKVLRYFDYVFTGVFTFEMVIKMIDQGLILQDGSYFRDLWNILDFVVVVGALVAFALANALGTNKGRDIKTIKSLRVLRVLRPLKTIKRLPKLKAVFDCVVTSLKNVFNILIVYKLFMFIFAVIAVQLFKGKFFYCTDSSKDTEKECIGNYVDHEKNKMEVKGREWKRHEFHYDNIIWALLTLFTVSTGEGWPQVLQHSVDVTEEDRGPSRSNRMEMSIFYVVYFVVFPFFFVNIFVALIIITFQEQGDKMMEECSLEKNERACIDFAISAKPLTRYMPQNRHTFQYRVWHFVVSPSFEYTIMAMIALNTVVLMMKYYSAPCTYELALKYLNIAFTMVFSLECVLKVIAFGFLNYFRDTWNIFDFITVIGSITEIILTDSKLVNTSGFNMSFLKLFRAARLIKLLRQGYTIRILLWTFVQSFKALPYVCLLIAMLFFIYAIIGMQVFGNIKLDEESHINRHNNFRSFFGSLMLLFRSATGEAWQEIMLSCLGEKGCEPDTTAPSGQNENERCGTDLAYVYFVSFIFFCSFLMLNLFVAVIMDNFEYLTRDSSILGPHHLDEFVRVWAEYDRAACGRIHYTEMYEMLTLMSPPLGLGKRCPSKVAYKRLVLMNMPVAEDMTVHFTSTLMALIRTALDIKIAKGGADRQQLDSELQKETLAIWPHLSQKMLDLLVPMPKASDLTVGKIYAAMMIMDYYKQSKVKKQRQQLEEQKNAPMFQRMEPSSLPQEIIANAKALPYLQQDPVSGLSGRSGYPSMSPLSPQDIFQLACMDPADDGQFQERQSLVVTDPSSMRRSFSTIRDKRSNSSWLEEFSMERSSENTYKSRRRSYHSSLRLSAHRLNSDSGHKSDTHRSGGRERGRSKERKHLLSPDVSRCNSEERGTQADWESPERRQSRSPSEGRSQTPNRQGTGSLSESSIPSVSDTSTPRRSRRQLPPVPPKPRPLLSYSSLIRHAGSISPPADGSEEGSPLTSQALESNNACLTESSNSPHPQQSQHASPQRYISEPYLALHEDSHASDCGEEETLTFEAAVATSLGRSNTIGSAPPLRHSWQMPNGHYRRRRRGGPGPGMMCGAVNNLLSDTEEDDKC

| Structure (SMILES) | IC50 |
| --- | --- |
| CCN([C@@H](C)c1ccc(F)cc1)S(=O)(=O)c1ccc2c(n1)CCN(C(=O)C1CC1)C2 [Example 33, (S)-6-(cyclopropanecarbonyl)-N-ethyl-N-(1-(4-fluorophenyl)ethyl)-5,6,7,8-tetrahydro-1,6-naphthyridine-2-sulfonamide] | 3.63 µM |
| CC(C)C(=O)N1CCc2ccc(S(=O)(=O)N(C)[C@@H](C)c3ccccc3)cc2CC1 [Example 36, (S)-3-isobutyryl-N-methyl-N-(1-phenylethyl)-2,3,4,5-tetrahydro-1H-benzo[d]azepine-7-sulfonamide] | 1.95 µM |
| CC(C)N1CCc2cc(S(=O)(=O)N(C)[C@@H](C)c3ccccc3)ccc2C1=O [Example 37, (S)-2-isopropyl-N-methyl-1-oxo-N-(1-phenylethyl)-1,2,3,4-tetrahydroisoquinoline-6-sulfonamide] | 6.46 µM |
| CC(C)N1Cc2ccc(S(=O)(=O)N(C)[C@@H](C)c3ccccc3)cc2CC1=O [Example 39, (S)-2-isopropyl-N-methyl-3-oxo-N-(1-phenylethyl)-1,2,3,4-tetrahydroisoquinoline-6-sulfonamide] | 11.7 µM |
| CCN([C@H](c1ccc(F)cc1)C(F)(F)F)S(=O)(=O)c1ccc2c(c1)CN(C(=O)C(C)(C)F)CC2 [Example 41, (R)-N-ethyl-2-(2-fluoro-2-methylpropanoyl)-N-(2,2,2-trifluoro-1-(4-fluorophenyl)ethyl)-1,2,3,4-tetrahydroisoquinoline-7-sulfonamide] | 0.891 µM |
| CCN([C@@H](c1ccc(F)cc1)C(F)(F)F)S(=O)(=O)c1ccc2c(c1)CN(C(=O)C(C)(C)F)CC2 [Example 42, (S)-N-ethyl-2-(2-fluoro-2-methylpropanoyl)-N-(2,2,2-trifluoro-1-(4-fluorophenyl)ethyl)-1,2,3,4-tetrahydroisoquinoline-7-sulfonamide] | 2.63 µM |
| CCN(C(c1ccc(F)cc1)C(F)(F)F)S(=O)(=O)c1ccc2c(c1)CN(C(=O)C1COC1)CC2 (stereo not shown) [Example 44, N-ethyl-2-(oxetane-3-carbonyl)-N-(2,2,2-trifluoro-1-(4-fluorophenyl)ethyl)-1,2,3,4-tetrahydroisoquinoline-7-sulfonamide] | 2.04 µM |
| CCN(C(c1ccc(F)cc1)C(F)(F)F)S(=O)(=O)c1ccc2c(c1)CN(C1COC1)CC2 (stereo not shown) [Example 45, N-ethyl-2-(oxetan-3-yl)-N-(2,2,2-trifluoro-1-(4-fluorophenyl)ethyl)-1,2,3,4-tetrahydroisoquinoline-7-sulfonamide] | 0.525 µM |
| CCN(C(c1ccc(F)cc1)C(F)(F)F)S(=O)(=O)c1ccc2c(c1)CN(C(=O)C1CC1)CC2 (stereo not shown) [Example 46, 2-(Cyclopropanecarbonyl)-N-ethyl-N-(2,2,2-trifluoro-1-(4-fluorophenyl)ethyl)-1,2,3,4-tetrahydroisoquinoline-7-sulfonamide] | 0.316 µM |
| CCN([C@H](c1ccc(F)cc1)C(F)(F)F)S(=O)(=O)c1ccc2c(c1)CN(C(=O)C1CC1)CC2 [Example 48, (R)-2-(Cyclopropanecarbonyl)-N-ethyl-N-(2,2,2-trifluoro-1-(4-fluorophenyl)ethyl)-1,2,3,4-tetrahydroisoquinoline-7-sulfonamide] | 0.427 µM |
| CC(C)C(=O)N1CCc2ccc(S(=O)(=O)N(CCF)[C@@H](c3ccc(F)cc3)C(F)(F)F)cc2C1 [Example 50, (S)-N-(2-fluoroethyl)-2-isobutyryl-N-(2,2,2-trifluoro-1-(4-fluorophenyl)ethyl)-1,2,3,4-tetrahydroisoquinoline-7-sulfonamide] | 3.31 µM |
| CC(C)C(=O)N1CCc2ccc(S(=O)(=O)N(CCF)[C@H](c3ccc(F)cc3)C(F)(F)F)cc2C1 [Example 51, (R)-N-(2-fluoroethyl)-2-isobutyryl-N-(2,2,2-trifluoro-1-(4-fluorophenyl)ethyl)-1,2,3,4-tetrahydroisoquinoline-7-sulfonamide] | 0.417 µM |

Other lines, results leading:

| IC50 | Structure (SMILES) |
| --- | --- |
| 2.29 µM | CCN([C@@H](C)c1ccc(F)cc1)S(=O)(=O)c1cnc2c(c1)CCN(C(=O)C1CC1)C2 [Example 32, (S)-7-(cyclopropanecarbonyl)-N-ethyl-N-(1-(4-fluorophenyl)ethyl)-5,6,7,8-tetrahydro-1,7-naphthyridine-3-sulfonamide] |
| 3.02 µM | CCN([C@@H](C)c1ccc(F)cc1)S(=O)(=O)c1cc2c(cn1)CN(C(=O)C1CC1)CC2 [Example 34, (S)-7-(cyclopropanecarbonyl)-N-ethyl-N-(1-(4-fluorophenyl)ethyl)-5,6,7,8-tetrahydro-2,7-naphthyridine-3-sulfonamide] |
| 3.16 µM | CC(C)C(=O)N1CCCc2cc(S(=O)(=O)N(C)[C@@H](C)c3ccccc3)ccc2C1 [Example 35, (S)-2-Isobutyryl-N-methyl-N-(1-phenylethyl)-2,3,4,5-tetrahydro-1H-benzo[c]azepine-7-sulfonamide] |
| 6.61 µM | C[C@@H](c1ccccc1)N(C)S(=O)(=O)c1ccc2c(c1)CCN(C)C2=O [Example 38, (S)-N,2-dimethyl-1-oxo-N-(1-phenylethyl)-1,2,3,4-tetrahydroisoquinoline-6-sulfonamide] |
| 2.88 µM | CC(C)C(=O)N1Cc2ccc(S(=O)(=O)N(C)[C@@H](C)c3ccccc3)cc2C1 [Example 40, (S)-2-isobutyryl-N-methyl-N-(1-phenylethyl)isoindoline-5-sulfonamide] |
| 0.589 µM | CCN(C(c1ccc(F)cc1)C(F)(F)F)S(=O)(=O)c1ccc2c(c1)CN(C(=O)C1CCOCC1)CC2 (stereo not shown) [Example 43, N-ethyl-2-(tetrahydro-2H-pyran-4-carbonyl)-N-(2,2,2-trifluoro-1-(4-fluorophenyl)ethyl)-1,2,3,4-tetrahydroisoquinoline-7-sulfonamide] |
| 4.57 µM | CCN([C@@H](c1ccc(F)cc1)C(F)(F)F)S(=O)(=O)c1ccc2c(c1)CN(C(=O)C1CC1)CC2 [Example 47, (S)-2-(Cyclopropanecarbonyl)-N-ethyl-N-(2,2,2-trifluoro-1-(4-fluorophenyl)ethyl)-1,2,3,4-tetrahydroisoquinoline-7-sulfonamide] |
